Assay results as given in publication PMC11436757, “BRCA2 stabilises RAD51 and DMC1 nucleoprotein filaments through a conserved interaction mode” (Nature Communications, 2024).
“Also recorded” adds a separate entry of the source. No end group written: not given here.

Tests used:
DMC1 ΔN V179E = test: Amylose pull-down of His-DMC1 ΔN V179E with MBP-BRCA2 fusions; assay type: binding, human; conditions: lysates mixed; MBP-BRCA2 fusion; 20 mM Tris pH 8.0, 500 mM KCl, 2 mM DTT
Description: For affinity experiments involving DMC1 ΔN V179E and F85E, MBP-fusions of BRCA2 fragments (Ex14, amino-acids 2387-2420, Ex14-Tr, amino acids 2401-2414, BRC4, amino acids 1519-1551) were cloned into pMAT11 vectors and DMC1 ΔN mutants (V179E or F85E) were cloned into pHAT4 vectors. Lysates of bacterial cultures expressing His6-DMC1 mutants or MBP-BRCA2 constructs were mixed, and complexes were purified through amylose affinity chromatography in 20 mM Tris pH 8.0, 500 mM KCl, 2 mM DTT and eluted using 30 mM D-maltose.

DMC1-ssDNA filaments = test: EMSA, protection of DMC1-ssDNA filaments from BRC4-mediated disruption; assay type: biochemical, human; conditions: 10-fold excess of BRC4
Description: Finally, we tested whether binding of BRCA2 Ex14 protects DMC1-ssDNA nucleoprotein filaments from BRC4-mediated disruption (Fig. 3c). […] Further, whilst the core PhePP interaction site is sufficient to stimulate DMC1-ssDNA nucleoprotein filament formation, surrounding amino-acids that are present within Ex14 (but not Ex14-Tr) are necessary to super-shift filaments and confer protection from BRC4-mediated disruption.
(§1) To form nucleoprotein filaments, DMC1 and RAD51 was incubated with fluorescent 100-base ssDNA (5’-FAM- […]-3’) at the concentrations indicated in the figures for 30 minutes at 4 °C in reaction buffer. For DMC1, reaction buffer is 25 mM TEA (triethanolamine) pH 7.5, 1 mM ATP, 2 mM MgCl2, 0.1 mg/ml BSA, 2 mM DTT, 200 mM KCl. For RAD51, reaction buffer is 50 mM TEA (triethanolamine), 2 mM ATP, 0.5 mM MgCl2, 2 mM DTT. For assays requiring incomplete nucleoprotein filament assembly, the reaction buffer consisted of 50 mM TAE (tris, acetate, EDTA) pH 7.5, 2 mM ATP, 2 mM MgCl2, 2 mM DTT. In nucleoprotein formation stimulation assays or supershift experiments, BRCA2Ex14 or BRCA2Ex14-AAA were added for a further 30 min at 4 °C. […] Glycerol was added at a final concentration of 3%, and samples were analysed by electrophoresis on a 1% (w/v) (for DMC1) or 0.66% (w/v) (for RAD51) agarose gel in 0.5x TAE pH 8.0 at 20–40 V for ~4 h at 4 °C. DNA was detected by FAM using a Typhoon^TM FLA 9500 (GE Healthcare), with 473 nm laser at excitation wavelength 490 nm and emission wavelength 520 nm, using the LPB filter and a PMT voltage of 500 V. To analyse RAD51 nucleoprotein filaments assembled upon 100-base poly(dT) ssDNA, gels were stained post-run using SYBR^TM Gold Nucleic Acid Gel Stain (Invitrogen) and detected using a Typhoon^TM FLA 9500 (GE Healthcare).

RAD51-ssDNA filaments [1] = test: EMSA, protection of RAD51-ssDNA filaments from BRC4-mediated disruption (random sequence ssDNA); assay type: biochemical; conditions: 100-nt random ssDNA; 10-fold excess of Ex27
Description: as §1

[2] = system: RAD51 L180E-ssDNA filaments; test: EMSA, protection of RAD51 L180E-ssDNA filaments from BRC4-mediated disruption (random sequence ssDNA); assay type: biochemical; conditions: 100-nt random ssDNA
Description: as §1

[3] = system: RAD51-ssDNA (polydT) filaments; test: EMSA, protection of RAD51-ssDNA (polydT) filaments from BRC4-mediated disruption; assay type: biochemical
Description: as §1

RAD51-ssDNA filaments [4] = conditions: ref [33],[34]; cited from earlier work
Description: BRCA2 interacts with RAD51 and DMC1 recombinases through BRC repeats and PhePP motifs (Fig. 1a)[21],[25]–[28]. The eight BRC repeats, located within BRCA2’s central exon 11 region, bind to RAD51 and DMC1 with various affinities[25],[29],[30].

Substance: ATRNEKMRHLITTGRPTKVFVPPFKTKSHFHRVE [Ex14]
- binding in pull-down (DMC1 ΔN V179E): failed to interact; also recorded: blocked its ability to bind Ex14
- protection of DMC1-ssDNA filaments from BRC4-mediated disruption (DMC1-ssDNA filaments; 5-fold excess (55 μM) peptide): complete protection
- protection of DMC1-ssDNA filaments from BRC4-mediated disruption (DMC1-ssDNA filaments; TEA pH 7.5 + KCl, Ex14 10-fold stoichiometric excess (110 μM)): protected against BRC4-mediated disruption; also recorded: protected filaments from disruption
- protection of DMC1-ssDNA filaments from BRC4-mediated disruption (DMC1-ssDNA filaments; equimolar (11 μM) peptide): some protection

Substance: Ex27: BRCA2 exon 27 PhePP peptide, amino acids 3270-3315 (ALDFLSRLPLPPPVSPICTFVSPAAQKAFQPPRSCGTKYETPIKKK; UniProt P51587 3270-3315, looked up, fragment)
- protection of RAD51-ssDNA filaments from BRC4-mediated disruption (RAD51-ssDNA filaments [1]): less complete; also recorded: not complete; also recorded: protected against BRC4-mediated disruption
- protection of RAD51 L180E-ssDNA filaments from BRC4-mediated disruption [2]: not protected; also recorded: abrogated
- protection of RAD51-ssDNA (polydT) filaments from BRC4-mediated disruption ([3]; 3-fold excess of Ex27 (33 μM), 10-fold excess of BRC4): some protection; also recorded: protection at a 3-fold excess
- protection of RAD51-ssDNA (polydT) filaments from BRC4-mediated disruption ([3]; 100-nt polydT, 10-fold excess of Ex27): protects; also recorded: full protection; also recorded: complete protection
- protection of RAD51-ssDNA filaments from BRC4-mediated disruption ([3]; equimolar Ex27 (11 µM), 10-fold excess of BRC4): no protection
- protection of nucleoprotein filaments from BRC-mediated disruption (RAD51-ssDNA filaments [4]): protects nucleoprotein filaments from BRC-mediated disruption
